According to patent US8114991B2, “Amino-1,3,5-triazines N-substituted with chiral bicyclic radicals, process for their preparation, compositions thereof, and their use as herbicides and plant growth regulators” (Bayer Cropscience AG, priority 2003, dated 2012):

What was measured:
[1] = system: harmful plants such as Sinapis alba, Echinochloa crus-galli, Lolium multiflorum, Stellaria media, Cyperus iria, Amaranthus retroflexus, Setaria viridis, Avena …; assay: Post-emergence effect on weeds (greenhouse pot test); type: in vivo; conditions: application rate of 2 kg or less of active ingredient per hectare; treated in the three-leaf stage; scored after approx. 3 to 4 weeks by comparison with untreated controls
[2] = system: harmful plants such as Stellaria media, Lolium multiforum, Amaranthus retroflexus, Sinapis alba, Avena sativa and Setaria viridis; assay: Pre-emergence effect on weeds (greenhouse pot test); type: in vivo; conditions: application rate of 1 kg or less of active ingredient per hectare; scored after 3 to 4 weeks by comparison with untreated controls
Text: Seeds or rhizome pieces of monocotyledonous and dicotyledonous weed plants were placed in sandy loam in plastic pots and covered with soil. The compounds according to the invention, which were formulated in the form of wettable powders or emulsion concentrates, were then applied to the surface of the soil cover as aqueous suspension or emulsion at various dosages with an application rate of 600 to 800 l of water per ha (converted).
After the treatment, the pots were placed into a greenhouse and kept under good growth conditions for the weeds. The plant or emergence damage was scored visually after the test plants have emerged after an experimental time of 3 to 4 weeks by comparison with untreated controls.

| Compound | herbicidal post-emergence activity against harmful plants (scored visually) [1] | pre-emergence control of harmful plants (plant or emergence damage scored visually) [2] |
| --- | --- | --- |
| CCc1nc(N)nc(N[C@@H]2CCc3ccc(F)cc32)n1 [Compound 8.26] | very good herbicidal post-emergence activity | very good pre-emergence control |
| CCc1nc(N)nc(N[C@@H]2CCCc3ccccc32)n1 [Compound 8.34] | very good herbicidal post-emergence activity | very good pre-emergence control |
| CCc1nc(N)nc(N[C@@H]2CCCc3ccc(C)cc32)n1 [Compound 8.35] | very good herbicidal post-emergence activity | very good pre-emergence control |
| CCc1nc(N)nc(N[C@@H]2CCCc3c(C)cc(C)cc32)n1 [Compound 8.38] | very good herbicidal post-emergence activity | very good pre-emergence control |
| CCc1nc(N)nc(N[C@@H]2CCOc3ccc(C)cc32)n1 [Compound 8.44] | very good herbicidal post-emergence activity | very good pre-emergence control |
| CCCc1nc(N)nc(N[C@@H]2CCc3ccc(C)cc32)n1 [Compound 8.48] | very good herbicidal post-emergence activity | very good pre-emergence control |
| CCCc1nc(N)nc(N[C@@H]2CCc3ccc(F)cc32)n1 [Compound 8.49] | very good herbicidal post-emergence activity | very good pre-emergence control |
| CCCc1nc(N)nc(N[C@@H]2CCCc3ccc(C)cc32)n1 [Compound 8.58] | very good herbicidal post-emergence activity | very good pre-emergence control |
| CCCc1nc(N)nc(N[C@@H]2CCCc3c(C)cc(C)cc32)n1 [Compound 8.61] | very good herbicidal post-emergence activity | very good pre-emergence control |
| Cc1ccc2c(c1)[C@H](Nc1nc(N)nc(C(C)C)n1)CC2 [Compound 8.67] | very good herbicidal post-emergence activity | very good pre-emergence control |
| CC(C)c1nc(N)nc(N[C@@H]2CCc3ccc(F)cc32)n1 [Compound 8.68] | very good herbicidal post-emergence activity | very good pre-emergence control |
| Cc1ccc2c(c1)[C@H](Nc1nc(N)nc(C(C)C)n1)CCC2 [Compound 8.71] | very good herbicidal post-emergence activity | very good pre-emergence control |
| Cc1ccc2c(c1)[C@H](Nc1nc(N)nc(C(C)C)n1)CCO2 [Compound 8.75] | very good herbicidal post-emergence activity | very good pre-emergence control |
| Cc1ccc2c(c1)[C@H](Nc1nc(N)nc(C(C)(Cl)Cl)n1)CC2 [Compound 8.79] | very good herbicidal post-emergence activity | very good pre-emergence control |
| Nc1nc(CF)nc(N[C@@H]2CCc3ccccc32)n1 [Compound 8.90] | very good herbicidal post-emergence activity | very good pre-emergence control |
| Nc1nc(CF)nc(N[C@@H]2CCCc3ccccc32)n1 [Compound 8.100] | very good herbicidal post-emergence activity | very good pre-emergence control |
| Nc1nc(CCl)nc(N[C@@H]2CCc3ccccc32)n1 [Compound 8.113] | very good herbicidal post-emergence activity | very good pre-emergence control |
| Nc1nc(CCl)nc(N[C@@H]2CCCc3ccccc32)n1 [Compound 8.117] | very good herbicidal post-emergence activity | very good pre-emergence control |
| CC1(c2nc(N)nc(N[C@@H]3CCc4ccccc43)n2)CC1 [Compound 8.148] | very good herbicidal post-emergence activity | very good pre-emergence control |

| Compound | herbicidal post-emergence activity against harmful plants (scored visually) [1] | pre-emergence control of harmful plants (plant or emergence damage scored visually) [2] |
| --- | --- | --- |
| CC1(c2nc(N)nc(N[C@@H]3CCCc4ccccc43)n2)CC1 [Compound 8.152] | very good herbicidal post-emergence activity | very good pre-emergence control |
| Nc1nc(N[C@@H]2CCc3ccccc32)nc(C2(F)CC2)n1 [Compound 8.160] | very good herbicidal post-emergence activity | very good pre-emergence control |
| Nc1nc(N[C@@H]2CCCc3ccccc32)nc(C2(F)CC2)n1 [Compound 8.170] | very good herbicidal post-emergence activity | very good pre-emergence control |
| Nc1nc(N[C@@H]2CCc3ccccc32)nc(C2(Cl)CC2)n1 [Compound 8.183] | very good herbicidal post-emergence activity | very good pre-emergence control |
| Nc1nc(N[C@@H]2CCCc3ccccc32)nc(C2(Cl)CC2)n1 [Compound 8.187] | very good herbicidal post-emergence activity | very good pre-emergence control |
| CC(C)(F)c1nc(N)nc(N[C@@H]2CCc3ccccc32)n1 [Compound 8.195] | very good herbicidal post-emergence activity | very good pre-emergence control |
| Cc1ccc2c(c1)[C@H](Nc1nc(N)nc(C(C)(C)F)n1)CC2 [Compound 8.196] | very good herbicidal post-emergence activity | very good pre-emergence control |
| CC(C)(F)c1nc(N)nc(N[C@@H]2CCc3ccc(F)cc32)n1 [Compound 8.197] | very good herbicidal post-emergence activity | very good pre-emergence control |
| Cc1cc2c(cc1C)[C@H](Nc1nc(N)nc(C(C)(C)F)n1)CC2 [Compound 8.201] | very good herbicidal post-emergence activity | very good pre-emergence control |
| CC(C)(F)c1nc(N)nc(N[C@@H]2CCCc3ccccc32)n1 [Compound 8.205] | very good herbicidal post-emergence activity | very good pre-emergence control |
| Cc1ccc2c(c1)[C@H](Nc1nc(N)nc(C(C)(C)F)n1)CCC2 [Compound 8.206] | very good herbicidal post-emergence activity | very good pre-emergence control |
| Cc1cc(C)c2c(c1)[C@H](Nc1nc(N)nc(C(C)(C)F)n1)CCC2 [Compound 8.209] | very good herbicidal post-emergence activity | very good pre-emergence control |
| Cc1ccc2c(c1)[C@H](Nc1nc(N)nc(C(C)(C)F)n1)CCO2 [Compound 8.215] | very good herbicidal post-emergence activity | very good pre-emergence control |
| Cc1ccc2c(c1)[C@H](Nc1nc(N)nc(C(C)(C)Cl)n1)CC2 [Compound 8.219] | very good herbicidal post-emergence activity | very good pre-emergence control |
| CCCc1nc(N)nc(N[C@@H]2CCOc3ccc(C)cc32)n1 [Compound 8.231] | very good herbicidal post-emergence activity | very good pre-emergence control |
| COCc1nc(N)nc(N[C@@H]2CCc3ccccc32)n1 [Compound 8.233] | very good herbicidal post-emergence activity | very good pre-emergence control |
| COCc1nc(N)nc(N[C@@H]2CCCc3ccccc32)n1 [Compound 8.234] | very good herbicidal post-emergence activity | very good pre-emergence control |
| CC(C)(F)c1nc(N)nc(N[C@@H]2CCOc3c(F)cccc32)n1 [Compound 8.237] | very good herbicidal post-emergence activity | very good pre-emergence control |
